The results in this text go back to patent US20080318960A1, “PAR2-modulating compounds and their use” (priority 2005, published 2008).

Assay type in all cases: cell-based
The target in test [1] is T1, human PAR2 (Homo sapiens, UniProt P55085).
T1 sequence (P55085 26-397): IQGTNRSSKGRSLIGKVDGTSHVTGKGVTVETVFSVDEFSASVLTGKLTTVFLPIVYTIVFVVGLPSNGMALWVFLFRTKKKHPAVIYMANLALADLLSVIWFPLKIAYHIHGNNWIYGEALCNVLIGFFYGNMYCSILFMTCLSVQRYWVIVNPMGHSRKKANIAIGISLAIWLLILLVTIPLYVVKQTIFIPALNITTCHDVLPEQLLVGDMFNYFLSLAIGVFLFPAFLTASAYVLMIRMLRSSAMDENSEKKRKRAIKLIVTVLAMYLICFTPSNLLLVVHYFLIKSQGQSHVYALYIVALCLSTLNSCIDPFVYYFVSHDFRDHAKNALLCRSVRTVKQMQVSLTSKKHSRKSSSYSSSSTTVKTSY
The test can be described thus: Receptor Selection and Amplification Technology (R-SAT) functional receptor assay. More on the design: expressed in transfected cells; host or cells: NIH3T3 cells, pSI-derived mammalian expression vector. The following applies: for EC50: NIH3T3 cells transfected with PAR2, PAR2 activation, negative log of EC50 in Molar; for Emax: NIH3T3 cells transfected with PAR2, percent maximal activation relative to SLIGRL, read-out: % Efficacy. As for the experimental part: The functional receptor assay, Receptor Selection and Amplification Technology (R-SAT), was used to investigate the pharmacological properties of known and novel PAR2 compounds. R-SAT is disclosed in U.S. Pat. Nos. 5,707,798, 5,912,132, and 5,955,281, all of which are hereby incorporated herein by reference in their entirety, including any drawings.
Briefly, NIH3T3 cells were grown in 96 well tissue culture plates to 70-80% confluence. Cells were transfected for 16-20 h with plasmid DNAs using Polyfect (Qiagen Inc.) as per manufacturer's protocols. R-SATs were generally performed with 4 ng/well of receptor and 20 ng/well of β-galactosidase plasmid DNA. All receptor constructs used were in the pSI-derived mammalian expression vector (Promega Inc) as described previously. The PAR2 gene was amplified by PCR from genomic DNA using oligodeoxynucleotide primers based on the published sequence (GenBank Accession # Z49993 and Z49994). For large-scale transfections, cells were transfected for 16-20 h, then trypsinized and frozen in DMSO. Frozen cells were later thawed, plated at ˜10,000 cells per well of a 96 half-area well plate that contained drug. With both methods, cells were then grown in a humidified atmosphere with 5% ambient CO2 for five days. Media was then removed from the plates and marker gene activity was measured by the addition of the β-galactosidase substrate o-nitrophenyl β-D-galactopyranoside (ONPG, in PBS with 0.5% NP-40). The resulting colorimetric reaction was measured in a spectrophotometric plate reader (Titertek Inc.) at 420 nm. All data were analyzed using the computer program XLFit (IDBSm). Efficacy is the percent maximal activation compared to activation by a control compound, the PAR2 activating hexapeptide SLIGRL (serine-leucine-isoleucine-glycine-arginine-leucine). pEC50 is the negative of the log (EC50), where EC50 is the calculated concentration in Molar that produces 50% maximal activation.
These experiments provide a molecular profile, or fingerprint, for each of these agents at human PAR2.
Efficacy is relative to that of SLIGRL.

The target in test [2] is T1, human PAR2. Kind of test: Determination of changes in inositol phosphates in transfected tsA cells. As to conditions: inositol phosphate hydrolysis, transfected tsA cells (transformed HEK293), 45 min with ligand; for Emax: TS/A, read-out: % Efficacy. As to the method:
Seed tsA cells (a transformed HEK293 cell line) at 10,000 cells/0.1 ml per well of 96 well plates at 37 C in a humidified 5% CO2 incubator in DMEM supplemented with 10% fetal calf serum, penicillin (100 units/ml) and streptomycin ([…]) and grown overnight.
Transfect the cells with plasmid DNAs coding receptors or G-protein helpers when needed using PolyFect according to the RSAT protocol described previously. At 18-20 h post-transfection, the medium is removed and the cells are labeled overnight with 2 uCi/ml myo-[2-3H] inositol (0.1 ml/well) freshly made in the culture medium.
Remove the medium and wash cells with Hank's Balanced Salt Solutions (HBSS) containing 1 mM CaCl2, 1 mM MgCl2, 20 mM LiCl and 0.1% BSA. The cells are then incubated with ligands for 45 min at 37 C (0.1 ml/well) and the reaction is stopped by exchanging the buffer with 150 ul/well ice-cold 20 mM formic acid. Add 50 ul/well 0.2M ammonium and store plates at −80 C or process samples immediately.
To separate total [3H] inositol phosphates (IPs) ion-exchange chromatography columns are loaded with 200 ul of AG 1-X8 resin suspension (50% resin and 50% water) and the cell extracts were applied to the columns. Wash the columns with 1 ml 40 mM ammonium hydroxide (pH9) and elute [3H] IPs into the 2 ml deep-well blocks with 0.4 ml 2M ammonium format/0.1M formic acid. Wash the columns with 0.6 ml water. Transfer the eluates into 7 ml scintillation vials and add 5 ml liquid scintillation cocktail. Mix well, leave the vials in the dark for at least 4 h and count on LS 6500 Multi-purpose Scintillation Counter (3 min/vial). This procedure collects IP1, IP2 and IP3.
As shown in Table 3 and FIG. 4, these experiments have shown these agents act at human PAR2 to stimulate inositol phosphate hydrolysis.

In test [3] the target is T1, human PAR2. The test can be described thus: Determination of changes in cytosolic calcium in transfected CHO-K1 cells. As to conditions: intracellular calcium mobilization; for EC50: CHO-K1 cells transfected with PAR2, Fura-2; for Emax: CHO-K1 cells transfected with PAR2, response compared to SLIGRL at 100 nM, read-out: % Efficacy. As to the method: 1. CHO-K1 cells transfected with PAR2 or a control receptor at a density 1-3×10^6 cells/ml are washed with phosphate-buffered saline.
2. Cells are loaded with 2 μM Fura-2 and analyzed with respect to the rise in intracellular calcium in the presence or absence of varying concentration of compound.
3. The response is compared to that elicited by the application of the standard reference ligand SLIGRL when tested at 100 nM.
Intracellular free calcium concentrations are calculated using the formula:
where Kd for Fura-2 is 224 nM, Fmax is the fluorescence in the presence of 0.04% Triton-X100 and Fmin is the fluorescence obtained after the addition of 5 mM EGTA in 30 mM Tris-HCl, pH7.4.
As shown in Table 2 and FIG. 3, these experiments have shown these agents act at human PAR2 to stimulate intracellular calcium mobilization.
For orientation: Calcium assays in cells follow changes in intracellular calcium, usually with a dye or a luminescent sensor.

What is called EC50 is the concentration giving half of the maximal effect.

The structures appear in SMILES notation.

As to `C/C(=N\NC(=O)C(NC(=O)c1ccccc1)c1n[nH]c(=O)c2ccccc12)c1cccc(Cl)c1` (stereo not drawn) [Compound 28, N-[2-{(2E)-2-[1-(3-chlorophenyl)ethylidene]hydrazino}-2-oxo-1-(4-oxo-3,4-dihydro-1-phthalazinyl)ethyl]benzamide], at human PAR2 [1], the EC50 was 158 nM and the Emax worked out at 112%.

In the case of `C/C(=N\NC(=O)C(NC(=O)c1ccccc1)c1n[nH]c(=O)c2ccccc12)c1cccc(Br)c1` (stereo not drawn) [Compound 3, N-[2-{(2E)-2-[1-(3-bromophenyl)ethylidene]hydrazino}-2-oxo-1-(4-oxo-3,4-dihydro-1-phthalazinyl)ethyl]benzamide], the Emax was found to be 120% at human PAR2 [2], 98% at human PAR2 [1] and 72% at human PAR2 [3]. Moreover, the figures for the EC50 at human PAR2 [2], at human PAR2 [1] and on human PAR2 [3] were 2510 nM, 126 nM and 3980 nM, respectively.

Consider `C/C(=N\NC(=O)C(NC(=O)c1ccccc1)c1n[nH]c(=O)c2ccccc12)c1cccc(C)c1` (stereo not drawn) [Compound 31, N-[2-{(2E)-2-[1-(3-methylphenyl)ethylidene]hydrazino}-2-oxo-1-(4-oxo-3,4-dihydro-1-phthalazinyl)ethyl]benzamide], for which, on human PAR2 [1], the half-maximal effective concentration (EC50) was 316 nM and the Emax came to 118%.

For the compound `C/C(=N\NC(=O)C(NC(=O)c1ccccc1)c1n[nH]c(=O)c2ccccc12)c1cccc(C(F)(F)F)c1` (stereo not drawn) [Compound 27, N-[2-oxo-1-(4-oxo-3,4-dihydro-1-phthalazinyl)-2-((2E)-2-{1-[3-(trifluoromethyl)phenyl]ethylidene}hydrazino)ethyl]benzamide], on human PAR2 [1], the EC50 is 251 nM and the Emax was 77%.

On to `C/C(=N\NC(=O)C(NC(=O)c1ccccc1)c1n[nH]c(=O)c2ccccc12)c1cccc(C#N)c1` (stereo not drawn) [Compound 29, N-[2-{(2E)-2-[1-(3-cyanophenyl)ethylidene]hydrazino}-2-oxo-1-(4-oxo-3,4-dihydro-1-phthalazinyl)ethyl]benzamide], for which, on human PAR2 [1], the response was half-maximal at 316 nM (EC50) and the Emax amounted to 132%.

As for `COc1cccc(/C(C)=N/NC(=O)C(NC(=O)c2ccccc2)c2n[nH]c(=O)c3ccccc23)c1` (stereo not drawn) [Compound 6, N-[2-{(2E)-2-[1-(3-methoxyphenyl)ethylidene]hydrazino}-2-oxo-1-(4-oxo-3,4-dihydro-1-phthalazinyl)ethyl]benzamide], on human PAR2 [1], the EC50 was 794 nM and the Emax was 79%.

Regarding `C/C(=N\NC(=O)C(NC(=O)c1ccccc1)c1n[nH]c(=O)c2ccccc12)c1cc(C)cc(C)c1` (stereo not drawn) [Compound 43, N-[2-{(2E)-2-[1-(3,5-dimethylphenyl)ethylidene]hydrazino}-2-oxo-1-(4-oxo-3,4-dihydro-1-phthalazinyl)ethyl]benzamide], the Emax was 130% on human PAR2 [2], 122% on human PAR2 [1] and 85% on human PAR2 [3]. In addition, the values for the EC50 at human PAR2 [2], on human PAR2 [1] and on human PAR2 [3] were 10000 nM, 79.4 nM and 7940 nM, respectively.

Consider `CC/C(=N\NC(=O)C(NC(=O)c1ccccc1)c1n[nH]c(=O)c2ccccc12)c1cccc(Br)c1` (stereo not drawn) [Compound 25, N-[2-{(2E)-2-[1-(3-bromophenyl)propylidene]hydrazino}-2-oxo-1-(4-oxo-3,4-dihydro-1-phthalazinyl)ethyl]benzamide], for which, on human PAR2 [1], it took 501 nM to reach a half-maximal effect (EC50) and the Emax was 111%.
